The first assay has as its target T1, PDE4B (human recombinant) (Homo sapiens, UniProt Q07343).
T1 construct: made in house
The experiment in a line: PDE4B inhibition, radioactive SPA and/or IMAP fluorescence polarisation (FP) assay. The format is biochemical. The conditions noted are these: comparators: Examples 6, 7, 29, 26, 64, 126, 124, 170, 177. From the text: Human recombinant PDE4B, in particular the 2B splice variant thereof (HSPDE4B2B), is disclosed in WO 94/20079 and also M. M. McLaughlin et al., “A low Km, rolipram-sensitive, cAMP-specific phosphodiesterase from human brain: cloning and expression of cDNA, biochemical characterisation of recombinant protein, and tissue distribution of mRNA”, J. Biol. Chem., 1993, 268, 6470-6476. For example, in Example 1 of WO 94/20079, human recombinant PDE4B is described as being expressed in the PDE-deficient yeast Saccharomyces cerevisiae strain GL62, e.g. after induction by addition of 150 uM CuSO4, and 100,000×g supernatant fractions of yeast cell lysates are described for use in the harvesting of PDE4B enzyme.
The ability of compounds to inhibit catalytic activity at PDE4B or 4D (human recombinant), PDE3 (from bovine aorta), PDE5 (human recombinant) or PDE6 (from bovine retina) can optionally be determined by Scintillation Proximity Assay (SPA) in 96-well format.
Test compounds (as a solution in DMSO, preferably about 2 microlitre (ul) volume of DMSO solution) are preincubated at ambient temperature (room temperature, e.g. 19-23° C.) in Wallac Isoplates (code 1450-514) with PDE enzyme in 50 mM Tris-HCl buffer pH 7.5, 8.3 mM MgCl2, 1.7 mM EGTA, 0.05% (w/v) bovine serum albumin for 10-30 minutes (usually 30 minutes). The enzyme concentration is adjusted so that no more than 20% hydrolysis of the substrate defined below occurs in control wells without compound, during the incubation. For the PDE3, PDE4B and PDE4D assays, [5′,8-3H]Adenosine 3′,5′-cyclic phosphate (Amersham Pharmacia Biotech, code TRK.559; or Amersham Biosciences UK Ltd, Pollards Wood, Chalfont St Giles, Buckinghamshire HP8 4SP, UK) is added to give 0.05 uCi per well and about 10 nM final concentration. For the PDE5 and PDE6 assays, [8-^3H]Guanosine 3′,5′-cyclic phosphate (Amersham Pharmacia Biotech, code TRK.392) is added to give 0.05 uCi per well and about 36 nM final concentration. Plates containing assay mixture, preferably approx. 100 ul volume of assay mixture, are mixed on an orbital shaker for 5 minutes and incubated at ambient temperature for 1 hour. Phosphodiesterase SPA beads (Amersham Pharmacia Biotech, code RPNQ 0150) are added (about 1 mg per well) to terminate the assay. Plates are sealed and shaken and allowed to stand at ambient temperature for 35 minutes to 1 hour (preferably 35 minutes) to allow the beads to settle. Bound radioactive product is measured using a WALLAC TRILUX 1450 Microbeta scintillation counter. For inhibition curves, 10 concentrations (1.5 nM-30 uM) of each compound are assayed. Curves are analysed using ActivityBase and XLfit (ID Business Solutions Limited, 2 Ocean Court, Surrey Research Park, Guildford, Surrey GU2 7QB, United Kingdom) Results are expressed as pIC50 values.
The ability of compounds to inhibit catalytic activity at PDE4B (human recombinant) or PDE4D (human recombinant) can optionally be determined by IMAP Fluorescence Polarisation (FP) assay (IMAP Explorer kit, available from Molecular Devices Corporation, Sunnydale, Calif., USA; Molecular Devices code: R8062) in 384-well format.
The IMAP FP assay is able to measure PDE activity in an homogenous, non-radioactive assay format. The FP assay uses the ability of immobilised trivalent metal cations, coated onto nanoparticles (tiny beads), to bind the phosphate group of Fl-AMP that is produced on the hydrolysis of fluorescein-labelled (Fl) cyclic adenosine mono-phosphate (Fl-cAMP) to the non-cyclic Fl-AMP form. […] Binding of Fl-AMP product to the beads (coated with the immobilised trivalent cations) slows the rotation of the bound Fl-AMP and leads to an increase in the fluorescence polarisation ratio of parallel to perpendicular light. Inhibition of the PDE reduces/inhibits this signal increase. […]
Background: Fluorescence polarisation rises when a labelled molecule tumbles more slowly, as on binding a larger partner.
T1 sequence (Q07343 1-564 isoform Q07343-2): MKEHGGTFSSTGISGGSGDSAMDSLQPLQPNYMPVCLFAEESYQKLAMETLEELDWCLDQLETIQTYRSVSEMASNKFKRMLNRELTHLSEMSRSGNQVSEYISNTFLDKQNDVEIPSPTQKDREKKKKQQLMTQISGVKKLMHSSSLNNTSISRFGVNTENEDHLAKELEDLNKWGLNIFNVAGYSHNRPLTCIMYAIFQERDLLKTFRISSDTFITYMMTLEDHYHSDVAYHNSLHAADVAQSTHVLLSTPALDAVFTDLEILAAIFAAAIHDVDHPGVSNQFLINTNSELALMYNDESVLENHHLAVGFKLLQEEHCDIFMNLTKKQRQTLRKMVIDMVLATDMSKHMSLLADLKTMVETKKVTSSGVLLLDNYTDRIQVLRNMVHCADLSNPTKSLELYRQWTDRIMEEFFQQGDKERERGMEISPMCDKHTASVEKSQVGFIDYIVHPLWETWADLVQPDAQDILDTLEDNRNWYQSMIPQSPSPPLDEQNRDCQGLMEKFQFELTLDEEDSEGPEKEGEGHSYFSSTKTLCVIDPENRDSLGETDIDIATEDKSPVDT
For `CCn1ncc2c(NC3CCOCC3)c(C(=O)N[C@H](COC)c3ccccc3)cnc21` [Example 24, 1-ethyl-N-[(1S)-2-(methyloxy)-1-phenylethyl]-4-(tetrahydro-2H-pyran-4-ylamino)-1H-pyrazolo[3,4-b]pyridine-5-carboxamide], the “PDE4B inhibitory activity compared with the comparable Example of opposite stereochemistry at the CR4R5 (benzylic) carbon atom” value is given as “greater PDE4B inhibitory activity”. In the case of `CCn1ncc2c(NC3CCC(=O)CC3)c(C(=O)N[C@H](C)c3ccc([N+](=O)[O-])cc3)cnc21` [Example 178, 1-ethyl-N-[(1R)-1-(4-nitrophenyl)ethyl]-4-[(4-oxocyclohexyl)amino]-1H-pyrazolo[3,4-b]pyridine-5-carboxamide], the “PDE4B inhibitory activity compared with the comparable Example of opposite stereochemistry at the CR4R5 (benzylic) carbon atom” value is “greater PDE4B inhibitory activity”. On to `CC[C@@H](NC(=O)c1cnc2c(cnn2CC)c1NC1CCOCC1)c1ccccc1` [Example 1, 1-ethyl-N-[(1R)-1-phenylpropyl]-4-(tetrahydro-2H-pyran-4-ylamino)-1H-pyrazolo[3,4-b]pyridine-5-carboxamide], for which the “PDE4B inhibitory activity compared with the comparable Example of opposite stereochemistry at the CR4R5 (benzylic) carbon atom” value was “greater PDE4B inhibitory activity”. Same read-out and setting: the result for `CCn1ncc2c(NC3CCCCC3)c(C(=O)N[C@H](CO)c3ccccc3)cnc21` [Example 127, 4-(cyclohexylamino)-1-ethyl-N-[(1S)-2-hydroxy-1-phenylethyl]-1H-pyrazolo[3,4-b]pyridine-5-carboxamide] reads “greater PDE4B inhibitory activity”.

Still in this assay, the particulars now being: one reading or average of several (ca. 2-6) readings; SPA and/or FP assay; range given for a group of Examples; read-out: PDE4B pIC50 (±about 0.5) (converted).
On to `CCn1ncc2c(NC3CCOCC3)c(C(=O)N[C@H](COC)c3ccccc3)cnc21` [Example 24, 1-ethyl-N-[(1S)-2-(methyloxy)-1-phenylethyl]-4-(tetrahydro-2H-pyran-4-ylamino)-1H-pyrazolo[3,4-b]pyridine-5-carboxamide], for which the IC50 is 0.794 to 5.01 nM. For `CC[C@@H](NC(=O)c1cnc2c(cnn2CC)c1N[C@H]1CC[C@H](C(N)=O)CC1)c1ccc(C)cc1C` [Example 356, 4-{[trans-4-(aminocarbonyl)cyclohexyl]amino}-N-[(1R)-1-(2,4-dimethylphenyl)propyl]-1-ethyl-1H-pyrazolo[3,4-b]pyridine-5-carboxamide], the IC50 was 39.8 to 158 nM. Still for that read-out and setting: next, `CCn1ncc2c(NC3CCC(C(N)=O)CC3)c(C(=O)NC(C)c3ccc(OC(F)F)cc3)cnc21` (mixture of isomers) [Example 348, 4-{[4-(aminocarbonyl)cyclohexyl]amino}-N-(1-{4-[(difluoromethyl)oxy]phenyl}ethyl)-1-ethyl-1H-pyrazolo[3,4-b]pyridine-5-carboxamide]: 0.501 to 3.16 nM. Same read-out and setting: the result for `CCn1ncc2c(N[C@H]3CC[C@@H](C(N)=O)CC3)c(C(=O)N[C@H](C)c3ccccc3)cnc21` [Example 354, 4-{[cis-4-(aminocarbonyl)cyclohexyl]amino}-1-ethyl-N-[(1R)-1-phenylethyl]-1H-pyrazolo[3,4-b]pyridine-5-carboxamide] reads 0.501 to 3.16 nM. The same measure, in the same setting: the result for `CCn1ncc2c(N[C@H]3CC[C@H](C(N)=O)CC3)c(C(=O)N[C@H](C)c3ccc(Br)cc3)cnc21` [Example 359, 4-{[trans-4-(aminocarbonyl)cyclohexyl]amino}-N-[(1R)-1-(4-bromophenyl)ethyl]-1-ethyl-1H-pyrazolo[3,4-b]pyridine-5-carboxamide] reads 39.8 to 158 nM.

As to `CCC(NC(=O)c1cnc2c(cnn2CC)c1NC1CCC(=O)CC1)c1ccc(Br)cc1` (centres unmarked) [Example 218, N-[1-(4-bromophenyl)propyl]-1-ethyl-4-[(4-oxocyclohexyl)amino]-1H-pyrazolo[3,4-b]pyridine-5-carboxamide], the IC50 is 0.1 to 2 nM. Same read-out and setting: next, `CCn1ncc2c(NC3CCC(C(N)=O)CC3)c(C(=O)NC(C)c3ccc(Cl)cc3)cnc21` (mixture of isomers) [Example 349, 4-{[4-(aminocarbonyl)cyclohexyl]amino}-N-[1-(4-chlorophenyl)ethyl]-1-ethyl-1H-pyrazolo[3,4-b]pyridine-5-carboxamide]: 0.501 to 3.16 nM; `CCn1ncc2c(N[C@H]3CC[C@@H](C(N)=O)CC3)c(C(=O)N[C@H](C)c3ccc(Br)cc3)cnc21` [Example 355, 4-{[cis-4-(aminocarbonyl)cyclohexyl]amino}-N-[(1R)-1-(4-bromophenyl)ethyl]-1-ethyl-1H-pyrazolo[3,4-b]pyridine-5-carboxamide]: 0.501 to 3.16 nM.

Consider `CC[C@@H](NC(=O)c1cnc2c(cnn2CC)c1NC1CCOCC1)c1ccccc1` [Example 1, 1-ethyl-N-[(1R)-1-phenylpropyl]-4-(tetrahydro-2H-pyran-4-ylamino)-1H-pyrazolo[3,4-b]pyridine-5-carboxamide], for which the IC50 was 0.794 to 5.01 nM. On the same count and under the same terms, next, `CCn1ncc2c(NC3CCCC(O)C3)c(C(=O)N[C@H](C)c3ccc(C)cc3)cnc21` (single isomer, unassigned; diastereoisomer 2) [Example 306]: 0.1 to 2 nM; `CCn1ncc2c(NC3CCOCC3)c(C(=O)NC(C)(C)c3ccccc3)cnc21` [Example 2, 1-ethyl-N-(1-methyl-1-phenylethyl)-4-(tetrahydro-2H-pyran-4-ylamino)-1H-pyrazolo[3,4-b]pyridine-5-carboxamide]: 12.6 to 25.1 nM.

On to `CCn1ncc2c(NC3CCOCC3)c(C(=O)N[C@@H](C(N)=O)c3ccccc3)cnc21` [Example 25, N-[(1R)-2-amino-2-oxo-1-phenylethyl]-1-ethyl-4-(tetrahydro-2H-pyran-4-ylamino)-1H-pyrazolo[3,4-b]pyridine-5-carboxamide], for which the IC50 was 31.6 to 70.8 nM. On to `CCC(NC(=O)c1cnc2c(cnn2CC)c1NC1CCOCC1)c1ccc(C)cc1C` (single isomer, unassigned; enantiomer 2) [Example 304, N-[1-(2,4-dimethylphenyl)propyl]-1-ethyl-4-(tetrahydro-2H-pyran-4-ylamino)-1H-pyrazolo[3,4-b]pyridine-5-carboxamide (Enantiomer 2)], for which the IC50 was 0.1 to 2 nM. For the compound `CC[C@H](NC(=O)c1cnc2c(cnn2CC)c1NC1CCOCC1)c1ccccc1` [Example 6, 1-ethyl-N-[(1S)-1-phenylpropyl]-4-(tetrahydro-2H-pyran-4-ylamino)-1H-pyrazolo[3,4-b]pyridine-5-carboxamide], the IC50 was 31.6 to 70.8 nM. As for `CCn1ncc2c(N[C@H]3CC[C@H](C(N)=O)CC3)c(C(=O)N[C@H](C)c3ccc(C)cc3)cnc21` [Example 357, 4-{[trans-4-(aminocarbonyl)cyclohexyl]amino}-1-ethyl-N-[(1R)-1-(4-methylphenyl)ethyl]-1H-pyrazolo[3,4-b]pyridine-5-carboxamide], the IC50 is 39.8 to 158 nM. The same measure, in the same setting: next, `CCC(NC(=O)c1cnc2c(cnn2CC)c1NC1CCOCC1)c1ccc(C)cc1C` (centres unmarked) [Example 98, N-[1-(2,4-dimethylphenyl)propyl]-1-ethyl-4-(tetrahydro-2H-pyran-4-ylamino)-1H-pyrazolo[3,4-b]pyridine-5-carboxamide]: 0.1 to 2 nM; `CCC(NC(=O)c1cnc2c(cnn2CC)c1NC1CCC(C(N)=O)CC1)c1ccc(F)cc1` (mixture of isomers) [Example 350, 4-{[4-(aminocarbonyl)cyclohexyl]amino}-1-ethyl-N-[1-(4-fluorophenyl)propyl]-1H-pyrazolo[3,4-b]pyridine-5-carboxamide]: 0.501 to 3.16 nM. On the same count and under the same terms, the result for `CCn1ncc2c(NC3CCOCC3)c(C(=O)N[C@@H](C)c3ccccc3)cnc21` [Example 7, 1-ethyl-N-[(1S)-1-phenylethyl]-4-(tetrahydro-2H-pyran-4-ylamino)-1H-pyrazolo[3,4-b]pyridine-5-carboxamide] reads 31.6 to 70.8 nM; that for `CCn1ncc2c(NC3CCOCC3)c(C(=O)N[C@H](C)c3ccc(C)cc3)cnc21` [Example 73, 1-ethyl-N-[(1R)-1-(4-methylphenyl)ethyl]-4-(tetrahydro-2H-pyran-4-ylamino)-1H-pyrazolo[3,4-b]pyridine-5-carboxamide], 0.1 to 2 nM.

Source of the values: patent US20080132536A1, “PYRAZOLO [3,4-B] PYRIDINE COMPOUNDS, AND THEIR USE AS PDE4 INHIBITORS” (Glaxo Group Limited, priority 2003, published 2008).
